# From PubChem BioAssay (NCI)
# Where “and” joins values, the source holds several entries; their conditions need not be identical. Equal entries are not always repeated.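 These data come from cells grown in 96-well plates and exposed to compound for 48 hours at five concentrations. Here, GI50 denotes the concentration required for 50% inhibition of growth. Definition used: TGI = concentration required for complete inhibition of growth.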
# Tests used:
# Assay in all cases: NCI anticancer screen, dose series, 48 h
# MOLT-4 leukemia = system: MOLT-4 leukemia
# UACC-62 melanoma = system: UACC-62 melanoma
# LOX IMVI melanoma = system: LOX IMVI melanoma
# HS 578T breast = system: HS 578T breast
# U251 CNS = system: U251 CNS
# HCC-2998 colon = system: HCC-2998 colon
# CAKI-1 renal = system: CAKI-1 renal
# SF-268 CNS = system: SF-268 CNS
# SF-539 CNS = system: SF-539 CNS
# OVCAR-3 ovarian = system: OVCAR-3 ovarian
# MCF7 breast = system: MCF7 breast
Compound,TGI (MOLT-4 leukemia),TGI (UACC-62 melanoma),TGI (LOX IMVI melanoma),TGI (HS 578T breast),TGI (U251 CNS),TGI (HCC-2998 colon),TGI (CAKI-1 renal),TGI (SF-268 CNS),TGI (SF-539 CNS),TGI (OVCAR-3 ovarian),TGI (MCF7 breast),GI50 (MOLT-4 leukemia),GI50 (UACC-62 melanoma),GI50 (LOX IMVI melanoma),GI50 (U251 CNS),GI50 (HCC-2998 colon),GI50 (SF-268 CNS),GI50 (SF-539 CNS),GI50 (OVCAR-3 ovarian)
COc1cccc(-c2cc(=O)c3cc(Cl)cnc3[nH]2)c1,28.3 µM,> 55.6 µM,> 100 µM,47.6 µM,23.5 µM,3.83 µM,71.8 µM,> 87.3 µM,2.56 µM,> 43 µM,> 78.8 µM,–,–,–,–,–,–,–,–
COP(C)(=O)C(Cc1c[nH]c2ccccc12)NC(=O)OCc1ccccc1 (configuration not stated),> 100 µM,> 100 µM,> 100 µM,> 100 µM,> 100 µM,> 100 µM,> 100 µM,> 100 µM,> 100 µM,> 100 µM,> 100 µM,–,–,–,–,–,–,–,–
CCN(CC)CCC(=O)c1ccc(Oc2ccc(F)cc2)cc1,51.3 µM,31.9 µM,28.8 µM,60.2 µM,31.1 µM,37.1 µM,30.9 µM,35.5 µM,31.8 µM,34.5 µM,38.7 µM,–,–,–,–,–,–,–,–
CC1(C)CC[C@]2(C(=O)O)[C@H](O)C[C@]3(C)C(=CC[C@@H]4[C@@]5(C)CC[C@H](OC6OC(C(=O)O)C(O)C(O)C6O)C(C)(C)[C@@H]5CC[C@]43C)[C@@H]2C1 (some centres not stated),> 100 µM,61.9 µM,> 100 µM,80.9 µM,> 100 µM,> 100 µM,> 100 µM,> 100 µM,–,> 100 µM,> 100 µM,–,–,–,–,–,–,–,–
C=CCN1CCC2(CC1)NC(=O)c1ccccc1O2,> 100 µM,> 100 µM,> 100 µM,> 100 µM,> 100 µM,> 100 µM,> 100 µM,> 100 µM,> 100 µM,> 100 µM,> 100 µM,–,–,–,–,–,–,–,–
Cc1cc(O)c(C(C)C)cc1N=Cc1ccccc1O,–,21.7 µM,> 84.3 µM,> 46.4 µM,14.6 µM,14.7 µM,25.4 µM,21.4 µM,49.3 µM,9.7 µM,78.9 µM,–,–,–,–,–,–,–,–
C=CC1(c2ccc(OC)cc2)OCCCO1,> 100 µM,> 100 µM,> 100 µM,> 100 µM,> 100 µM,> 100 µM,–,> 100 µM,> 100 µM,> 100 µM,> 100 µM,–,–,–,–,–,–,–,–
C[N+](C)(N)c1nc(N)c(C#N)c(C#N)c1C#N,> 10 µM,> 10 µM,> 10 µM,> 10 µM,> 10 µM,> 10 µM,> 10 µM,> 10 µM,> 10 µM,> 10 µM,> 10 µM,–,–,–,–,–,–,–,–
CC(=O)C1(O)Cc2c(O)c3c(c(O)c2C(OC2CC(N)C(O)C(C)O2)C1)C(=O)c1ccccc1C3=O (configuration not stated),0.0122 µM and < 0.109 µM,0.306 µM and 0.0842 µM,0.243 µM and 0.0335 µM,0.391 µM,0.419 µM and 0.13 µM,0.257 µM and 0.0758 µM,–,0.343 µM and 0.233 µM,0.199 µM and 0.0511 µM,0.987 µM and 0.475 µM,1.5 µM,0.00182 µM,< 0.0123 µM,0.0214 µM,< 0.0115 µM,0.0198 µM,0.0259 µM,0.0116 µM,0.0375 µM
COc1cc2c(c(OC)c1OC)-c1ccc(SC)cc1C(=O)CC2,> 100 µM,> 100 µM,> 100 µM,> 100 µM,> 100 µM,39.6 µM,> 100 µM,–,< 0.01 µM,> 100 µM,> 100 µM,–,–,–,–,–,–,–,–
CN(C)CCn1nc(N)c2nc3cc(C(F)(F)F)ccc3nc21,> 100 µM,> 100 µM,> 100 µM,> 100 µM,> 100 µM,> 100 µM,> 100 µM,> 100 µM,–,–,> 100 µM,–,–,–,–,–,–,–,–
COc1ccccc1NCC(=O)Nn1c(C)nc2ccc(S(=O)(=O)Nc3ccccc3OC)cc2c1=O,> 100 µM,> 100 µM,> 100 µM,> 100 µM,> 100 µM,> 100 µM,> 100 µM,> 100 µM,> 100 µM,> 100 µM,> 100 µM,–,–,–,–,–,–,–,–
CC(/C=N/NC1=NCCCN1)=N\NC1=NCCCN1,> 100 µM,> 100 µM,> 100 µM,> 100 µM,> 100 µM,> 100 µM,> 100 µM,> 100 µM,> 100 µM,> 100 µM,> 100 µM,–,–,–,–,–,–,–,–
NCCCC[C@H](N)C(=O)Nc1ccc(-c2nc3ccccc3s2)cc1Cl,> 24.1 µM,28.5 µM,–,51.5 µM,13.7 µM,> 38.4 µM,19.2 µM,25.5 µM,–,19.2 µM,9.01 µM,–,–,–,–,–,–,–,–
CC1=CC(=O)/C(=C/n2c(=S)[nH]c3ccccc32)C(=O)O1,> 100 µM,> 100 µM,> 100 µM,> 100 µM,> 100 µM,> 100 µM,> 100 µM,> 100 µM,> 100 µM,> 100 µM,> 100 µM,–,–,–,–,–,–,–,–
O=C1OC(=O)C2C1C(c1ccccc1[N+](=O)[O-])C=C(c1ccco1)N2c1ccncc1 (configuration not stated),6.38 µM,36.4 µM,3.82 µM,> 100 µM,12 µM,–,37.5 µM,46.3 µM,16.6 µM,30.5 µM,6.73 µM,–,–,–,–,–,–,–,–
CN(C)c1ccc(/C=c2/c3cc([N+](=O)[O-])ccc3n3c2cc(-c2ccccc2)[n+]3C)cc1,8.85 µM,1.87 µM,–,7.97 µM,1.32 µM,7.55 µM,23.4 µM,2.86 µM,3.6 µM,5.48 µM,8.07 µM,–,–,–,–,–,–,–,–
CCOC(=O)CC[C@H](N)C(=O)N[C@H](Cc1ccc(N(CCCl)CCCl)cc1)C(=O)OCC,31.5 µM,–,> 39.1 µM,6.64 µM,> 33.7 µM,6.21 µM,4.03 µM,11.3 µM,8.83 µM,10.1 µM,> 47.5 µM,–,–,–,–,–,–,–,–
OC(CN1CCCCC1)c1ccc(/C=C/c2ccc(Cl)cc2)cc1 (configuration not stated),> 100 µM,44.9 µM,–,> 100 µM,> 100 µM,> 100 µM,–,> 100 µM,> 100 µM,> 100 µM,> 100 µM,–,–,–,–,–,–,–,–
CC(C)c1cccc(C(C)C)c1OS(=O)(=O)NC(=O)OC(C(F)(F)F)C(F)(F)F,55.6 µM,–,> 100 µM,> 100 µM,> 100 µM,> 100 µM,> 100 µM,> 100 µM,> 100 µM,–,> 100 µM,–,–,–,–,–,–,–,–
